Reference: article PMC8650221 (Biochemistry, 2021)
Where two headings read alike, the source gives them in different places.

How the values were obtained:
[1] = system: wild type OMPDC; conditions: cited from earlier work; for stabilization of the transition state for OMPDC-catalyzed decarboxylation of FO by activator (ΔG^‡act): 1.0 M dianion activator; for (kcat/Km)E•Act/Kd: activated decarboxylation of FO, pH 7.0, 25 °C, I = 0.15 (NaCl)
[2] = biological target: T1, T100’A OMPDC (Saccharomyces cerevisiae, UniProt P03962, T100A); format: biochemical; conditions: pH 7.0, 25 °C, I = 0.15 (NaCl); for (kcat/Km)E•Act/Kd: activated decarboxylation of FO, T100’A OMPDC; for Kd: activator of T100’A OMPDC-catalyzed decarboxylation of FO
[3] = biological target: T2, D37G OMPDC (Saccharomyces cerevisiae, UniProt P03962, D37G); experiment: D37G variant OMPDC-catalyzed decarboxylation of FO, dianion-activated; format: biochemical
[4] = biological target: T2, D37G OMPDC; format: biochemical; conditions: phosphite dianion activation of D37G-catalyzed decarboxylation of EO, pH 7.0, 25 °C, I = 0.14 (NaCl)
[5] = system: wild type OMPDC; conditions: cited from earlier work
[6] = system: adenylate kinase; conditions: cited from earlier work
[7] = system: wild type OMPDC; conditions: cited from earlier work; remark: listed apart in the source
[8] = biological target: T1, T100’A OMPDC; experiment: T100’A variant OMPDC-catalyzed decarboxylation of OMP; format: biochemical
[9] = biological target: T2, D37G OMPDC; experiment: D37G variant OMPDC-catalyzed decarboxylation of OMP; format: biochemical

T2 sequence (P03962 whole entry D37G): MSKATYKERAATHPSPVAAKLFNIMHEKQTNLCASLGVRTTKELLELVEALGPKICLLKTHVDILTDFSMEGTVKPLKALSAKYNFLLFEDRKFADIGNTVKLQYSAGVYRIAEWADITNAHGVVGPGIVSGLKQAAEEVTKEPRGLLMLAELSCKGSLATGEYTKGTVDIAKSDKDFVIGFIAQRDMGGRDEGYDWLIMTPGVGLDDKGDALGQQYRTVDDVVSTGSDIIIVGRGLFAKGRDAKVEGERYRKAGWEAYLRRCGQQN
T1 sequence (P03962 whole entry T100A): as the sequence (P03962 whole entry D37G) above, with G37D, T100A counted along it

Row | SMILES | stabilization of the transition state for OMPDC-catalyzed decarboxylation of FO by activator (ΔG^‡act) [1] [kcal/mol] | (kcat/Km)E•Act/Kd [1] | (kcat/Km)E•Act/Kd [2] | Kd [2] | further results
1 | O=P(O)(O)OCC(O)CO [DG3P, D-glycerol 3-phosphate] | 7.2 | 2.5 × 10^−2 M^−2 s^−1 |  |  | 
2 | O=[PH](O)O [HPO3^2−, phosphite dianion] | 5.2 | 8.4 × 10^−4 M^−2 s^−1 | (1.87 ± 0.03) × 10^−4 M^−2 s^−1 | Kd >> [HPO3^2−]^e | Kd ([3]; activator of D37G OMPDC-catalyzed decarboxylation of FO, pH 7.0, 25 °C, I = 0.15 (NaCl)): 4.7 mM; Kd ([3]; phosphite dianion activation of D37G-catalyzed decarboxylation of FO): 4.7 mM; Kd [4]: 5.1 mM; ΔG^‡act, stabilization of the decarboxylation transition state by phosphite dianion ([5]; decarboxylation of EO, wild type OMPDC): 7.7 kcal/mol; Kd ([5]; productive (observed) binding of phosphite dianion activator to wild type OMPDC or variant enzymes): ~100 mM
3 | Nc1ncnc2c1ncn2[C@@H]1O[C@H](COP(=O)(O)O)[C@@H](O)[C@H]1O [AMP] |  |  |  |  | transition state stabilization by interactions with the adenosyl group ([6]; enzyme-catalyzed phosphoryl transfer from ATP (to AMP)): ≥ 14.7 kcal/mol
4 | O=P(O)(O)OC[C@H](O)CO [LG3P, L-glycerol 3-phosphate] |  | 1.0 × 10^−3 M^−2 s^−1 | (5.3 ± 0.2) × 10^−4 M^−2 s^−1 | Kd >> [LG3P]^e | 
5 | O=P(O)(O)OCC(O)CO (racemic) [DLG3P, D,L-glycerol 3-phosphate] |  | 1.3 × 10^−2 M^−2 s^−1 | (1.7 ± 0.2) × 10^−3 M^−2 s^−1 | 94 ± 8 mM | 
6 | O=P(O)(O)OC[C@@H](O)[C@@H](O)CO [DE4P, D-erythritol 4-phosphate] | 9.0 | 6.0 × 10^−1 M^−2 s^−1 | (5.4 ± 0.1) × 10^−3 M^−2 s^−1 |  | Kd [3]: 3 mM
7 | Nc1c2ncnc-2ncn1[C@@H]1OC[C@@H](O)[C@H]1O [(1-β-D-erythrofuranosyl)adenine] |  |  |  |  | transition state stabilization by interactions with the substrate piece ([6]; phosphoryl transfer from ATP to phosphite dianion): ≥ 8.7 kcal/mol
8 | O=C(O)c1cc(=O)[nH]c(=O)n1[C@@H]1O[C@H](COP(=O)(O)O)[C@@H](O)[C@H]1O [OMP, orotidine 5’-monophosphate] |  |  |  |  | stabilization of the Michaelis complex ([7]; Michaelis complex of OMPDC to OMP): 8 kcal/mol; transition state stabilization ([7]; OMPDC-catalyzed decarboxylation of OMP): 31 kcal/mol; intrinsic dianion binding energy ([7]; wild type OMPDC, from ratio of kcat/Km for OMP and EO): 11.7 kcal/mol; intrinsic dianion binding energy ([8]; T100’A OMPDC, calculated from ratio of kcat/Km for OMP and EO (Table 1)): 10.8 kcal/mol; decrease in transition state stabilization by protein interactions with the substrate dianion ([8]; effect of T100’A substitution, decarboxylation of OMP): 0.9 kcal/mol; intrinsic dianion binding energy ([9]; D37G OMPDC, calculated from ratio of kcat/Km for OMP and EO (Table 1)): 11.0 kcal/mol; decrease in transition state stabilization by protein interactions with the substrate dianion ([9]; effect of D37G substitution, decarboxylation of OMP): 0.7 kcal/mol
